Laboratory results from PubChem BioAssay (NCI).
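Where inhibition never reached the appropriate level, the endpoint shown equals the highest concentration tested. Otherwise, values were interpolated linearly from a five-concentration, 48-hour dose response in 96-well plates. The concentration for full growth arrest is given as TGI.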

What was measured:
Test in all cases: NCI tumour cell line growth inhibition, 48 h
HL-60(TB) leukemia = system: HL-60(TB) leukemia
PC-3 prostate = system: PC-3 prostate
EKVX NSCLC = system: EKVX NSCLC
HS 578T breast = system: HS 578T breast
IGROV1 ovarian = system: IGROV1 ovarian
NCI/ADR-RES ovarian = system: NCI/ADR-RES ovarian
OVCAR-8 ovarian = system: OVCAR-8 ovarian
UO-31 renal = system: UO-31 renal
UACC-257 melanoma = system: UACC-257 melanoma
SN12C renal = system: SN12C renal
HOP-62 NSCLC = system: HOP-62 NSCLC
TK-10 renal = system: TK-10 renal
MCF7 breast = system: MCF7 breast
HCT-116 colon = system: HCT-116 colon
BT-549 breast = system: BT-549 breast
RXF 393 renal = system: RXF 393 renal
SF-268 CNS = system: SF-268 CNS
SK-MEL-28 melanoma = system: SK-MEL-28 melanoma
NCI-H23 lung = system: NCI-H23 lung
MDA-MB-231 breast = system: MDA-MB-231 breast
LOX IMVI melanoma = system: LOX IMVI melanoma
CAKI-1 renal = system: CAKI-1 renal
OVCAR-5 ovarian = system: OVCAR-5 ovarian
K-562 leukemia = system: K-562 leukemia
MOLT-4 leukemia = system: MOLT-4 leukemia
786-0 renal = system: 786-0 renal
NCI-H522 lung = system: NCI-H522 lung
COLO 205 colon = system: COLO 205 colon
DU-145 prostate = system: DU-145 prostate
OVCAR-4 ovarian = system: OVCAR-4 ovarian
CCRF-CEM leukemia = system: CCRF-CEM leukemia
A549 NSCLC = system: A549 NSCLC
M14 melanoma = system: M14 melanoma
UACC-62 melanoma = system: UACC-62 melanoma
SNB-19 CNS = system: SNB-19 CNS
SK-MEL-5 melanoma = system: SK-MEL-5 melanoma
T-47D breast = system: T-47D breast
SR leukemia = system: SR leukemia
HCT-15 colon = system: HCT-15 colon
MALME-3M melanoma = system: MALME-3M melanoma
MDA-N = system: MDA-N
KM12 colon = system: KM12 colon
RPMI-8226 leukemia = system: RPMI-8226 leukemia
SF-295 CNS = system: SF-295 CNS
MDA-MB-435 = system: MDA-MB-435
SK-OV-3 ovarian = system: SK-OV-3 ovarian
SNB-75 CNS = system: SNB-75 CNS
U251 CNS = system: U251 CNS
OVCAR-3 ovarian = system: OVCAR-3 ovarian
NCI-H460 lung = system: NCI-H460 lung
HT29 colon = system: HT29 colon
SW-620 colon = system: SW-620 colon
HCC-2998 colon = system: HCC-2998 colon
SF-539 CNS = system: SF-539 CNS
HOP-92 NSCLC = system: HOP-92 NSCLC
SK-MEL-2 melanoma = system: SK-MEL-2 melanoma
NCI-H226 lung = system: NCI-H226 lung
ACHN renal = system: ACHN renal

CCCCCCC(O)C(=O)OC1C2C(CC1(C)C)C(O)C13OC1C(O)C1(CO1)[C@@]23C (stereo partly specified)
TGI (HL-60(TB) leukemia): > 100 µM
TGI (PC-3 prostate): > 100 µM
TGI (EKVX NSCLC): > 100 µM
TGI (HS 578T breast): 79.3 µM
TGI (IGROV1 ovarian): > 100 µM
TGI (NCI/ADR-RES ovarian): > 100 µM
TGI (OVCAR-8 ovarian): > 100 µM
TGI (UO-31 renal): > 100 µM
TGI (UACC-257 melanoma): > 100 µM
TGI (SN12C renal): > 100 µM
TGI (HOP-62 NSCLC): > 100 µM
TGI (TK-10 renal): > 100 µM
TGI (MCF7 breast): > 100 µM
TGI (HCT-116 colon): > 100 µM
TGI (BT-549 breast): > 100 µM
TGI (RXF 393 renal): 59.4 µM
TGI (SF-268 CNS): 53.6 µM
TGI (SK-MEL-28 melanoma): > 100 µM
TGI (NCI-H23 lung): > 100 µM
TGI (MDA-MB-231 breast): > 100 µM
TGI (LOX IMVI melanoma): > 100 µM
TGI (CAKI-1 renal): > 100 µM
TGI (OVCAR-5 ovarian): > 100 µM
TGI (K-562 leukemia): > 100 µM
TGI (MOLT-4 leukemia): > 100 µM
TGI (786-0 renal): 86.8 µM
TGI (NCI-H522 lung): > 100 µM
TGI (COLO 205 colon): > 100 µM
TGI (DU-145 prostate): > 100 µM
TGI (OVCAR-4 ovarian): > 100 µM
TGI (CCRF-CEM leukemia): > 100 µM
TGI (A549 NSCLC): > 100 µM
TGI (M14 melanoma): > 100 µM
TGI (UACC-62 melanoma): > 100 µM
TGI (SNB-19 CNS): > 100 µM
TGI (SK-MEL-5 melanoma): 40.9 µM
TGI (T-47D breast): > 100 µM
TGI (SR leukemia): > 100 µM
TGI (HCT-15 colon): > 100 µM
TGI (MALME-3M melanoma): > 100 µM
TGI (MDA-N): > 100 µM
TGI (KM12 colon): > 100 µM
TGI (RPMI-8226 leukemia): > 100 µM
TGI (SF-295 CNS): > 100 µM
TGI (MDA-MB-435): > 100 µM
TGI (SK-OV-3 ovarian): > 100 µM
TGI (SNB-75 CNS): 31.2 µM
TGI (U251 CNS): > 100 µM
TGI (OVCAR-3 ovarian): > 100 µM

Cn1c2ccccc2c(=NNc2ccc(S(=O)(=O)N=C(N)N)cc2)c2ccccc21
TGI (HL-60(TB) leukemia): 38.6 µM
TGI (PC-3 prostate): 21.3 µM
TGI (EKVX NSCLC): 25 µM
TGI (HS 578T breast): 49.7 µM
TGI (NCI-H460 lung): 14 µM
TGI (IGROV1 ovarian): 28.5 µM
TGI (NCI/ADR-RES ovarian): 71.1 µM
TGI (OVCAR-8 ovarian): 26.4 µM
TGI (UO-31 renal): 22 µM
TGI (UACC-257 melanoma): 34.9 µM
TGI (SN12C renal): 21.9 µM
TGI (HOP-62 NSCLC): 28.2 µM
TGI (HT29 colon): 14.5 µM
TGI (TK-10 renal): 26.5 µM
TGI (MCF7 breast): 12.9 µM
TGI (SW-620 colon): 21.1 µM
TGI (HCT-116 colon): 17 µM
TGI (BT-549 breast): 29.1 µM
TGI (RXF 393 renal): 10.8 µM
TGI (SF-268 CNS): 22.1 µM
TGI (NCI-H23 lung): 26.9 µM
TGI (MDA-MB-231 breast): 32.4 µM
TGI (LOX IMVI melanoma): 16.9 µM
TGI (CAKI-1 renal): 38.8 µM
TGI (HCC-2998 colon): 19.8 µM
TGI (OVCAR-5 ovarian): 20.2 µM
TGI (K-562 leukemia): 18 µM
TGI (MOLT-4 leukemia): 13.4 µM
TGI (786-0 renal): 19.2 µM
TGI (SF-539 CNS): 27.3 µM
TGI (NCI-H522 lung): 11 µM
TGI (HOP-92 NSCLC): 36.4 µM
TGI (COLO 205 colon): 18.7 µM
TGI (SK-MEL-2 melanoma): 28 µM
TGI (DU-145 prostate): 32.3 µM
TGI (OVCAR-4 ovarian): 16.8 µM
TGI (CCRF-CEM leukemia): 31.9 µM
TGI (A549 NSCLC): 26.7 µM
TGI (M14 melanoma): 30.1 µM
TGI (NCI-H226 lung): 19 µM
TGI (UACC-62 melanoma): 32 µM
TGI (SNB-19 CNS): 22.6 µM
TGI (SK-MEL-5 melanoma): 20.1 µM
TGI (T-47D breast): 35.6 µM
TGI (SR leukemia): 40.5 µM
TGI (HCT-15 colon): 36.7 µM
TGI (MALME-3M melanoma): 20.7 µM
TGI (MDA-N): 25.1 µM
TGI (KM12 colon): 20.6 µM
TGI (RPMI-8226 leukemia): 43.4 µM
TGI (SF-295 CNS): 31.1 µM
TGI (MDA-MB-435): 23.7 µM
TGI (ACHN renal): 20.1 µM
TGI (SK-OV-3 ovarian): 21.3 µM
TGI (SNB-75 CNS): 25.4 µM
TGI (U251 CNS): 21.6 µM
TGI (OVCAR-3 ovarian): 23 µM
